Assay results: ChEMBL document CHEMBL4351023, “Novel N-benzylpiperidine carboxamide derivatives as potential cholinesterase inhibitors for the treatment of Alzheimer's disease” (Eur J Med Chem, 2019)

Key:
[1] = biological target: Acetylcholinesterase (Electrophorus electricus, UniProt O42275); assay: Inhibition of Electrophorus electricus AChE using acetylthiocholine iodide as substrate by Ellman's method
[2] = biological target: Cholinesterase (Equus caballus, UniProt P81908); assay: Inhibition of BuChE in equine serum using Butyrylthiocholine iodide as substrate by Ellman's method; assay type: cell-free
[3] = test system: SH-SY5Y; assay: cells; assay type: ADME, cell-based; conditions: Homo sapiens, 72 h
[4] = Solubility of compound in <1 % DMSO; assay type: physicochemical
[5] = Solubility of compound in water at 10 mM; assay type: physicochemical; conditions: buffer, 10000 µM

Cholinesterase, sequence (P81908 whole entry): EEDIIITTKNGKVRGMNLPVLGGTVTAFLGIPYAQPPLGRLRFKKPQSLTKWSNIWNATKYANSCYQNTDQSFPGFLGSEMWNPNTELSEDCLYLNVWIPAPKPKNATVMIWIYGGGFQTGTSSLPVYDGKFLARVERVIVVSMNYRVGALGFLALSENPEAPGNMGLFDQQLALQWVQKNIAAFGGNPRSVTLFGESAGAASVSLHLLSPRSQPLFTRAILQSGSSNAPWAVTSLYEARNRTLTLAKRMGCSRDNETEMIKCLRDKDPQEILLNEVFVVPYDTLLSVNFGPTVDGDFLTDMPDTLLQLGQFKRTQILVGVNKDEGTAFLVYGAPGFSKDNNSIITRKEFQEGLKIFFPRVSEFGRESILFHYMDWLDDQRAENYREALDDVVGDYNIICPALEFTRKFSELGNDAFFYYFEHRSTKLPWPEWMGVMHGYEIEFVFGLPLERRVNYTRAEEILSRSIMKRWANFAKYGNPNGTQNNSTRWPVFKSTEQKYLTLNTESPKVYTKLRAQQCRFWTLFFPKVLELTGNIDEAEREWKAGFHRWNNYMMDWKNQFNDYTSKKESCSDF
Acetylcholinesterase, sequence (O42275 whole entry): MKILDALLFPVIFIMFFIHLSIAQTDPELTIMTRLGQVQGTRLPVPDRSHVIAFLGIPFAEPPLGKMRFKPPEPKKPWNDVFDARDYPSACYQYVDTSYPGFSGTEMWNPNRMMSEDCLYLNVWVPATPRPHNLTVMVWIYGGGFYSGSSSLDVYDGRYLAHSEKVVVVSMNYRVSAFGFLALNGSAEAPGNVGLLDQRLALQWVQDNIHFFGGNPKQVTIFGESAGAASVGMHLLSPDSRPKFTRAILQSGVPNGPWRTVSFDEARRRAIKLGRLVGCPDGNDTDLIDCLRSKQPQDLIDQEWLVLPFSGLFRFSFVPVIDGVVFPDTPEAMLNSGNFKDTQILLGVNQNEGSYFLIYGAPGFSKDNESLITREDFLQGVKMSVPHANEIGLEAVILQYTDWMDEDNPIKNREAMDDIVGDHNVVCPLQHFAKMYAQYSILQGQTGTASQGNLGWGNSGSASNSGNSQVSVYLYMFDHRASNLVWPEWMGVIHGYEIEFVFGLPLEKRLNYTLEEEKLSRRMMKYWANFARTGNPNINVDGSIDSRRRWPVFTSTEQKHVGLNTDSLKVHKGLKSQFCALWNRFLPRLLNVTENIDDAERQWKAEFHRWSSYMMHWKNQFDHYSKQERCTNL

| Compound | IC50 [1] [µM] | IC50 [2] [µM] | IC50 [3] [µM] | solubility [4] | solubility [5] |
| --- | --- | --- | --- | --- | --- |
| O=C(NCCc1c[nH]c2ccccc12)C1CCN(Cc2ccccc2)CC1 | 25.6 | > 100 | 40.5 | Soluble | Insoluble |
| COc1cc2c(cc1OC)-c1nc(NC(=O)C3CCN(Cc4ccccc4)CC3)sc1C2 |  | > 100 | 31.3 | Soluble | Insoluble |
| Cc1c(NC(=O)C2CCN(Cc3ccccc3)CC2)c(=O)n(-c2ccccc2)n1C | 5.94 | > 100 | > 100 | Soluble | Insoluble |
| O=C(Nc1nccs1)C1CCN(Cc2ccccc2)CC1 | 51.1 | > 100 | 76.6 | Soluble | Insoluble |
| O=C(NC1CCCc2ccccc21)C1CCN(Cc2ccccc2)CC1 (stereo not given) | > 100 | > 100 | 99.3 | Soluble | Insoluble |
| O=C(NCCN1CCCCC1)C1CCN(Cc2ccccc2)CC1 | 82.1 | > 100 | > 100 | Soluble | Insoluble |
| O=C(NCc1ccccn1)C1CCN(Cc2ccccc2)CC1 | 30.9 | > 100 | > 100 | Soluble | Insoluble |
| O=C(NCCNc1cccc2ccccc12)C1CCN(Cc2ccccc2)CC1 | 14 | > 100 | 13.6 | Soluble | Insoluble |
| COc1cc(CCNC(=O)C2CCN(Cc3ccccc3)CC2)cc(OC)c1OC | > 100 | > 100 | > 100 | Soluble | Insoluble |
| O=C(NCCN1CCOCC1)C1CCN(Cc2ccccc2)CC1 | > 100 | > 100 | 73.4 | Soluble | Insoluble |
| O=C(NCCc1c[nH]cn1)C1CCN(Cc2ccccc2)CC1 | > 100 | > 100 | > 100 | Soluble | Insoluble |
| O=C(NCc1ccncc1)C1CCN(Cc2ccccc2)CC1 | 58.2 | > 100 | 3.37 | Soluble | Insoluble |
| O=C(NCc1cccnc1)C1CCN(Cc2ccccc2)CC1 | 58.9 | > 100 | > 100 | Soluble | Insoluble |
| O=C(NCc1ccco1)C1CCN(Cc2ccccc2)CC1 | > 100 | > 100 | > 100 | Soluble | Insoluble |
| COc1ccccc1CNC(=O)C1CCN(Cc2ccccc2)CC1 | 44.4 | > 100 | 50.9 | Soluble | Insoluble |
| COc1cc2c(cc1OC)C(=O)C(CC1CCN(Cc3ccccc3)CC1)C2 (stereo not given) [DONEPEZIL] |  |  | 95.1 |  |  |
